Columns and labels:
[1] = test system: GLuc expression in HT29 cells; assay: Transcription assay, globally platinated pGLuc, HT29; type: cell-based, human
Method: (§1) Transfection of transcription probes into A549 and HT29 cells with the pGLuc plasmid was carried out using liposomal transfecting agents. Determination of expression levels was tested by Luciferase assays monitored by a luminometer (J. Am. Chem. Soc. 2010, 132, 7429-7435). A549 cells were plated in 96-well plates at 2,000 cells/well and HT29 cells were plated in 96-well plates at 6,000 cells/well. After 48 h incubation (at ˜30% confluence), cells were transfected with 50 ng of platinated plasmids in 25 μL Opti-MEM and 0.125 μL Lipofectamine 2000, and subsequently 50 μL of antibiotics-free DMEM supplemented with 10% FBS. After 2 h, the cells were washed with medium and 100 μL of fresh medium was added. The experiment was carried out in quadruplicate.
(§2) GLuc activity was monitored using a luminescence plate reader (Synergy 2, BioTek, Winooski, Vt., USA). A 10 μL volume of medium at different time points (12, 24, 36, 48, 60 h) was transferred into opaque white 96-well plates, and 25 μL of GLuc assay solution (10 μM colelenterazine (NanoLight Technologies, Pinetop, Ariz., USA) in 2.5 mM acidified methanol (100 mM HCl), buffer (10 mM Tris-HCl pH 7.8, 1 mM EDTA, 0.6 M NaCl)) was added by the automatic injector of the instrument.
(§3) In another embodiment, A549 or HT29 cells were transfected using the platinated transcription probes, and transcription levels were investigated by determining GLuc expression as measured by […] following addition of coelenterazine as a substrate for the exported enzyme. The emission intensities were normalized against unplatinated plasmids as a control. Transcription profiles were obtained by plotting normalized levels of GLuc expression against platination levels (Pt/plasmid ratio) at five different time points. […] An increase in D0 value at different time points represents restoration of transcription.

[2] = test system: human prostate carcinoma PC3; assay: MTT assay, PC3; type: cell-based
Method: (§6) Solutions of the platinum compounds were freshly prepared in sterile PBS before use and their concentrations quantitated by atomic absorption spectroscopy. Cells were seeded on a 96-well plate (1200 cells per well for cancer cells and 1800 cells per well for the normal lung fibroblasts) in 100 μL RPMI or DMEM media, and incubated for 24 h. […] The cells were then treated with 20 μL of 3-(4,5-dimethylthiazol-2-yl)-2,5-diphenyltetrazolium bromide (MTT) (5 mg/mL in PBS) and incubated for 4 h. The medium was removed, 100 μL of DMSO was added to the cells, and the absorbance of the purple formazan was recorded at 560 nm using a BioTek Synergy HT multi-detection microplate plate reader. Each condition was performed in triplicate and three independent experiments were carried out for each cell line.
(§7) Human prostate carcinoma (PC3) and human cervix carcinoma (HeLa) cells were obtained from the ATCC. The human lung carcinoma cell line A549 was kindly provided by David E. Root (Whitehead Institute for Biomedical Research). Cells were incubated at 37° C. in 5% CO2 and grown in RPMI (PC3) or DMEM (A549 and HeLa) medium supplemented with 10% fetal bovine serum and 1% penicillin/streptomycin. Cells were passaged every 3 to 4 days and restarted from the frozen stock upon reaching passage number 20.
(§8) Solutions of the platinum agents were freshly prepared in sterile PBS before use and the platinum content was quantitated by AAS. Cells were seeded on 96 well plates (1200 cells per well) in 100 μL RPMI or DMEM media\ and incubated for 24 hours. […] The cells were then treated with 20 μL of 3-(4,5-dimethylthiazol-2-yl)-2,5-diphenyltetrazolium bromide (MTT) (5 mg/mL in PBS) and incubated for 4 h. The medium was removed, 100 μL of DMSO were added to the cells, and the absorbance of the purple formazan was recorded at 570 nm using a BioTek Synergy HT multi-detection microplate plate reader. For each cell line, three independent experiments were carried out in triplicate.

human bone sarcoma U2OS = assay: MTT assay, U2OS; type: cell-based
Method: (§4) Human colon carcinoma HT29, human breast carcinoma MCF7, human bone sarcoma U2OS, human prostate carcinoma PC3, and human cervix carcinoma HeLa cells were obtained from the ATCC. A2780/CP70 cisplatin-resistant human ovarian cancer cells were kindly provided by Dr. Stephen B. Howell (Moores UCSD Cancer Center) and the human lung carcinoma cell lines A549 and normal lung fibroblast MRC5 by David E. Root (Whitehead Institute for Biomedical Research). Cells were incubated at 37° C. in 5% CO2 and grown in RPMI (HT29, A2780/CP70, and PC3) or DMEM (A549, MRC5, HeLa, MCF7, and U2OS) medium supplemented with 10% fetal bovine serum and 1% penicillin/streptomycin. Cells were passed every 3 to 4 days and restarted from a frozen stock upon reaching pass number 20.
(§5) Solutions of the platinum compounds were freshly prepared in sterile PBS before use and their concentrations quantitated by atomic absorption spectroscopy. […] The cells were then treated with 20 μL of 3-(4,5-dimethylthiazol-2-yl)-2,5-diphenyltetrazolium bromide (MTT) (5 mg/mL in PBS) and incubated for 4 h. The medium was removed, 100 μL of DMSO was added to the cells, and the absorbance of the purple formazan was recorded at 560 nm using a BioTek Synergy HT multi-detection microplate plate reader. Each condition was performed in triplicate and three independent experiments were carried out for each cell line.

NTera2 = assay: MTT assay, NTera2; type: cell-based, human; details: Table 3, NTera2 Testis, 72-h incubation
Method: as §6

[3] = test system: normal lung fibroblast MRC5; assay: MTT assay, MRC5; type: cell-based, human
Method: as §4, §5

[4] = test system: 60 different human cancer cell lines; assay: NCI-60 DTP Human Tumor Cell Line Screen; details: single dose of 10 μM
[5] = test system: GLuc expression in A549 cells; assay: Transcription assay, globally platinated pGLuc, A549; type: cell-based, human; details: for transcription level (normalized against unplatinated plasmid): Pt/DNA ratio of […] for phenanthriplatin
Method: as §1, §2, §3

[6] = test system: Human colon carcinoma HT29; assay: MTT assay, HT29; type: cell-based
Method: as §4, §5

[7] = test system: human cervix carcinoma HeLa cells; assay: MTT assay, HeLa; type: cell-based
Method: as §6, §7, §8

5′-dGMP = details: 16 equiv 5′-dGMP, 37° C., PBS pH 7.4
Method: The 1-D ^1H NMR kinetic studies were performed in duplicate as a standard time-arrayed experiment using a variable delayed list. Incremented 1-D spectra were processed in exactly the same way and signals of aromatic amine ligands from platinum compounds were integrated. The relative concentrations of the platinum compound at each time point were calculated from peak integrals. […] Reactions of platinum compounds with 5′-dGMP were performed in NMR tubes containing 2 mM of the platinum compounds and 32 mM (16 equiv) of 5′-dGMP in 10 mM PBS buffer, D2O, pH*7.4 at 37° C.

calf thymus DNA = assay: Ethidium bromide DNA-binding competition, Scatchard analysis; parameters: key: competitive (type A); non-competitive (type D); both (type B); No inhibition of ethidium binding is labeled as type C
From the text: Using this approach, it is possible to determine whether the inhibition of ethidium binding is competitive (type A), non-competitive (type D), or both (type B). No inhibition of ethidium binding is labeled as type C.

## cis-[Pt(NH3)2(phenanthridine)Cl]NO3 [phenanthriplatin]
[1]; HT29, 12 h after transfection
  D0 (Pt lesions per plasmid required to reduce transcription levels to 37% of control): 18.9 Pt/plasmid
[1]; HT29, 48 h after transfection
  D0 (Pt lesions per plasmid required to reduce transcription levels to 37% of control): 23.5 Pt/plasmid
[1]; HT29, 60 h, Pt/DNA ratio of […] for phenanthriplatin
  transcription level (normalized against unplatinated plasmid): 37.6%
[1]; HT29, 60 h after transfection
  D0 (Pt lesions per plasmid required to reduce transcription levels to 37% of control): 25.0 Pt/plasmid
[2]; Table 3, PC3 Prostate, 72-h incubation
  IC50: 740 ± 40 nM
[2]; Table 11 (Example 3), PC3 Prostate, 72 h
  IC50: 600 ± 250 nM
Human bone sarcoma U2OS; Table 3, U2OS Bone, 72-h incubation
  IC50: 590 ± 40 nM
Human bone sarcoma U2OS; Table 5, U2OS, 72-h incubation
  IC50: 590 ± 40 nM
Human bone sarcoma U2OS; Table 14, U2OS, MTT assay
  IC50: 1050 ± 20 nM
NTera2
  IC50: 35 ± 2 nM
[3]; Table 4, MRC5 normal lung fibroblast, 72 h incubation
  IC50: 860 ± 60 nM
[3]; Table 5, MRC5, 72-h incubation
  IC50: 860 ± 60 nM
[4]
  growth inhibition of the 60 cell lines: significant growth inhibition
[5]; A549, 12 h
  transcription level (normalized against unplatinated plasmid): 19.5%
[5]; A549, 12 h after transfection
  D0 (Pt lesions per plasmid required to reduce transcription levels to 37% of control): 14.2 Pt/plasmid
[5]; A549, 24 h after transfection
  D0 (Pt lesions per plasmid required to reduce transcription levels to 37% of control): 17.3 Pt/plasmid
[5]; A549, 36 h after transfection
  D0 (Pt lesions per plasmid required to reduce transcription levels to 37% of control): 22.2 Pt/plasmid
[5]; A549, 48 h after transfection
  D0 (Pt lesions per plasmid required to reduce transcription levels to 37% of control): 31.6 Pt/plasmid
[5]; A549, 60 h
  transcription level (normalized against unplatinated plasmid): 51.1%
[5]; A549, 60 h after transfection
  D0 (Pt lesions per plasmid required to reduce transcription levels to 37% of control): 39.8 Pt/plasmid
[6]; Table 3, HT29 Colorectal, 72-h incubation
  IC50: 2020 ± 40 nM
[6]; Table 5, HT29, 72-h incubation
  IC50: 2020 ± 40 nM
[6]; Table 14, HT29, MTT assay
  IC50: 2020 ± 40 nM
[7]; Table 3, HeLa Cervix, 72-h incubation
  IC50: 300 ± 20 nM
[7]; Table 5, HeLa, 72-h incubation
  IC50: 300 ± 20 nM
[7]; Table 11 (Example 3), HeLa Cervix, 72 h
  IC50: 210 ± 35 nM
[7]; Table 14, HeLa, MTT assay
  IC50: 370 ± 40 nM
5′-dGMP
  pseudo-first order rate constant, reaction with 5′-dGMP: 0.22 h⁻¹
Calf thymus DNA; 12-h incubation period
  type of inhibition of ethidium binding (Scatchard): type D
Calf thymus DNA; 1 min incubation period
  type of inhibition of ethidium binding (Scatchard): type C

Source: patent US9034862B2, “Compositions and methods for the treatment of cancer” (priority 2011, dated 2015)
